Here are results for 28 sequences from patent publication US7785828B1 (priority 2003, dated 2010).

Common to all, as to format: cell-based
Experiment [1] relates to Fusarium graminearum.
A further experiment has as its system Septoria tritici.
A further experiment relates to Mycosphaerella fijiensis.
Experiment [2] relates to Fusarium graminearum. Also noted: key: + indicates a 1- to 5-fold improvement in activity compared to a reference defensin protein; ++ indicates a >5- to 10-fold improvement; +++ indicates a >10-fold improvement; “0” indicates no activity detected.
Setting [3] is: Table 2B (Dm-AMP1 based libraries), improvement compared to reference defensin protein (Rs-AFP2 for Table 2B [sic]).

Where two headings read alike, the source gives them in different places.

With “DGVKLCEKASQTWSGHCGNTKHCDNQCKNWEGAKHGACHKRNGKWKCFCYFNC [L7-350] (Defensin like)”, in the experiment with Fusarium graminearum [1], the “Antifungal activity, Fusarium graminearum (improvement compared to DmAMP1)” value is “+ (key: + indicating 1- to 5-fold improvement compared to DmAMP1; ++ indicating >5- to 10-fold improvement; +++ indicating >10-fold improvement)”. In the experiment on Septoria tritici, the “Antifungal activity, Septoria tritici (improvement compared to DmAMP1)” value is listed as “+ (key: + indicating 1- to 5-fold improvement compared to DmAMP1; ++ indicating >5- to 10-fold improvement; +++ indicating >10-fold improvement)”. The “Antifungal activity, Mycosphaerella fijiensis (improvement compared to DmAMP1)” value in the experiment with Mycosphaerella fijiensis was “+ (key: + indicating 1- to 5-fold improvement compared to DmAMP1; ++ indicating >5- to 10-fold improvement; +++ indicating >10-fold improvement)”.

On to “DGVKLCEKASQTWSGHCGNTKHCDNQCKNWEGAKHGACHKRNGKWKCFCYFNC [L7-434] (Defensin like)”, for which the “Antifungal activity, Fusarium graminearum (improvement compared to DmAMP1)” value in the experiment on Fusarium graminearum [1] is given as “+++ (key: + indicating 1- to 5-fold improvement compared to DmAMP1; ++ indicating >5- to 10-fold improvement; +++ indicating >10-fold improvement)”. For the same sequence, in the experiment with Septoria tritici, the “Antifungal activity, Septoria tritici (improvement compared to DmAMP1)” value is given as “+ (key: + indicating 1- to 5-fold improvement compared to DmAMP1; ++ indicating >5- to 10-fold improvement; +++ indicating >10-fold improvement)”. Further, in the experiment with Mycosphaerella fijiensis, the “Antifungal activity, Mycosphaerella fijiensis (improvement compared to DmAMP1)” value is on record as “+ (key: + indicating 1- to 5-fold improvement compared to DmAMP1; ++ indicating >5- to 10-fold improvement; +++ indicating >10-fold improvement)”.

Consider “DGVKLCEKASQTWSGHCGNTKHCDNQCKNWEGAKHGACHKRSGKWKCFCYFNC (Defensin like) [L7-422]”, for which, in the experiment on Fusarium graminearum [1], the “Antifungal activity, Fusarium graminearum (improvement compared to DmAMP1)” value is recorded as “+ (key: + indicating 1- to 5-fold improvement compared to DmAMP1; ++ indicating >5- to 10-fold improvement; +++ indicating >10-fold improvement)”. Also, the “Antifungal activity, Septoria tritici (improvement compared to DmAMP1)” value in the experiment on Septoria tritici is “+ (key: + indicating 1- to 5-fold improvement compared to DmAMP1; ++ indicating >5- to 10-fold improvement; +++ indicating >10-fold improvement)”. Moreover, in the experiment with Mycosphaerella fijiensis, the “Antifungal activity, Mycosphaerella fijiensis (improvement compared to DmAMP1)” value is “+ (key: + indicating 1- to 5-fold improvement compared to DmAMP1; ++ indicating >5- to 10-fold improvement; +++ indicating >10-fold improvement)”.

Consider “DGVKLCEKASQTWSGNCGNTKHCDTQCRNWEGAKHGACHKRNGKWKCFCYFNC (Defensin like) [L7-174]”, for which the “Antifungal activity, Fusarium graminearum (improvement compared to DmAMP1)” value in the experiment on Fusarium graminearum [1] is “+++ (key: + indicating 1- to 5-fold improvement compared to DmAMP1; ++ indicating >5- to 10-fold improvement; +++ indicating >10-fold improvement)”. Besides, the “Antifungal activity, Septoria tritici (improvement compared to DmAMP1)” value in the experiment on Septoria tritici is “++ (key: + indicating 1- to 5-fold improvement compared to DmAMP1; ++ indicating >5- to 10-fold improvement; +++ indicating >10-fold improvement)”. For the same sequence, in the experiment with Mycosphaerella fijiensis, the “Antifungal activity, Mycosphaerella fijiensis (improvement compared to DmAMP1)” value is on record as “+ (key: + indicating 1- to 5-fold improvement compared to DmAMP1; ++ indicating >5- to 10-fold improvement; +++ indicating >10-fold improvement)”.

On to “DGVKLCERASQTWTGHCGNTKHCDNQCRSWEGAAHGACHKRSGKWKCFCYFNC (Defensin like) [L7-82]”, for which the “Antifungal activity, Fusarium graminearum (improvement compared to DmAMP1)” value in the experiment with Fusarium graminearum [1] is listed as “++ (key: + indicating 1- to 5-fold improvement compared to DmAMP1; ++ indicating >5- to 10-fold improvement; +++ indicating >10-fold improvement)”. The “Antifungal activity, Septoria tritici (improvement compared to DmAMP1)” value with Septoria tritici is on record as “+ (key: + indicating 1- to 5-fold improvement compared to DmAMP1; ++ indicating >5- to 10-fold improvement; +++ indicating >10-fold improvement)”. In the experiment on Mycosphaerella fijiensis, the “Antifungal activity, Mycosphaerella fijiensis (improvement compared to DmAMP1)” value is “+++ (key: + indicating 1- to 5-fold improvement compared to DmAMP1; ++ indicating >5- to 10-fold improvement; +++ indicating >10-fold improvement)”.

Take “DGVKLCERPSKTWSGHCGNTKHCDKQCRSWEGAAHGACHVRNGKWKCFCYFNC (Defensin like) [L7-94]”: in the experiment on Fusarium graminearum [1], the “Antifungal activity, Fusarium graminearum (improvement compared to DmAMP1)” value is given as “++ (key: + indicating 1- to 5-fold improvement compared to DmAMP1; ++ indicating >5- to 10-fold improvement; +++ indicating >10-fold improvement)”. Besides, in the experiment with Septoria tritici, the “Antifungal activity, Septoria tritici (improvement compared to DmAMP1)” value is “+ (key: + indicating 1- to 5-fold improvement compared to DmAMP1; ++ indicating >5- to 10-fold improvement; +++ indicating >10-fold improvement)”. Further, in the experiment on Mycosphaerella fijiensis, the “Antifungal activity, Mycosphaerella fijiensis (improvement compared to DmAMP1)” value is “+ (key: + indicating 1- to 5-fold improvement compared to DmAMP1; ++ indicating >5- to 10-fold improvement; +++ indicating >10-fold improvement)”.

“DGVKLCERPSKTWSGNCGNTKHCDKQCKNWEKAKHGACHVRNGKWKCFCYFNC (Defensin like) [L7-112]”: the “Antifungal activity, Fusarium graminearum (improvement compared to DmAMP1)” value in the experiment with Fusarium graminearum [1] was “+ (key: + indicating 1- to 5-fold improvement compared to DmAMP1; ++ indicating >5- to 10-fold improvement; +++ indicating >10-fold improvement)”. Further, the “Antifungal activity, Septoria tritici (improvement compared to DmAMP1)” value with Septoria tritici is “+ (key: + indicating 1- to 5-fold improvement compared to DmAMP1; ++ indicating >5- to 10-fold improvement; +++ indicating >10-fold improvement)”. Also, in the experiment with Mycosphaerella fijiensis, the “Antifungal activity, Mycosphaerella fijiensis (improvement compared to DmAMP1)” value was “+ (key: + indicating 1- to 5-fold improvement compared to DmAMP1; ++ indicating >5- to 10-fold improvement; +++ indicating >10-fold improvement)”.

“NLCERASKTWSGNCGNTKHCDNQCRNWEGAAHGACHVRNGKHKCFCYFNC (Defensin like) [L6-59]”: the “Antifungal activity, Septoria tritici (improvement compared to DmAMP1)” value in the experiment on Septoria tritici was “+ (key: + indicating 1- to 5-fold improvement compared to DmAMP1; ++ indicating >5- to 10-fold improvement; +++ indicating >10-fold improvement)”. In addition, the “Antifungal activity, Mycosphaerella fijiensis (improvement compared to DmAMP1)” value in the experiment with Mycosphaerella fijiensis is reported as “+ (key: + indicating 1- to 5-fold improvement compared to DmAMP1; ++ indicating >5- to 10-fold improvement; +++ indicating >10-fold improvement)”.

In the case of “NLCERASKTWTGNCGNTKHCDNQCRNWEGAKHGACHVRSGKWKCFCYFNC (Defensin like) [L10-79]”, in the experiment with Fusarium graminearum [2] (setting [3]), the “Activity (1): antifungal activity of the NP against Fusarium graminearium” value (shortened to “Activity (1): antifungal activity”) is reported as “++ (++ indicates a >5- to 10-fold improvement)”.

As for “NLCERASKTWTGNCGNTKHCDNQCRNWESAAHGACHKRSGKWKCFCYFNC (Defensin like) [L3-98]”, in the experiment with Fusarium graminearum [2] (setting [3]), the “Activity (1): antifungal activity” value is listed as “++ (++ indicates a >5- to 10-fold improvement)”.

As for “NLCERASKTWTGNCGNTKHCDNQCRSWEGAKHGACHKRSGKWKCFCYFNC (Defensin like) [L10-77]”, the “Activity (1): antifungal activity” value in the experiment with Fusarium graminearum [2] (setting [3]) is listed as “++ (++ indicates a >5- to 10-fold improvement)”.

In the case of “NLCERASKTWTGNCGNTKHCDTKCRSWESAKHGACHKRNGKWKCFCYFNC (Defensin like) [L3-46]”, the “Activity (1): antifungal activity” value with Fusarium graminearum [2] (setting [3]) is on record as “++ (++ indicates a >5- to 10-fold improvement)”.

On to “NLCERASKTWTGNCGNTKHCDTQCKIWEGAKHGACHKRSGKWKCFCYFNC (Defensin like) [L3-77]”, for which, in the experiment on Fusarium graminearum [2] (setting [3]), the “Activity (1): antifungal activity” value is “++ (++ indicates a >5- to 10-fold improvement)”.

“NLCERASKTWTGNCGNTKHCDTQCKNWEGAKHGACHVRNGKWKCFCYFNC (Defensin like) [L6-77]”: the “Activity (1): antifungal activity” value in the experiment on Fusarium graminearum [2] (setting [3]) is listed as “++ (++ indicates a >5- to 10-fold improvement)”.

With “NLCERASKTWTGNCGNTKHCDTQCKNWESAKHGACHVRSGKHKCFCYFNC (Defensin like) [L3-28]”, the “Activity (1): antifungal activity” value with Fusarium graminearum [2] (setting [3]) is “++ (++ indicates a >5- to 10-fold improvement)”.

For the sequence “NLCERASKTWTGNCGNTKHCDTQCKSWEGAKHGACHKRSGKWKCFCYFNC (Defensin like) [L5-21]”, in the experiment with Fusarium graminearum [2] (setting [3]), the “Activity (1): antifungal activity” value was “+ (+ indicates a 1- to 5-fold improvement in activity compared to a reference defensin protein)”.

Turning to “NLCERASKTWTGNCGNTKHCDTQCKSWEGAKHGACHVRNGKWKCFCYFNC (Defensin like) [L6-52]”, the “Activity (1): antifungal activity” value with Fusarium graminearum [2] (setting [3]) was “+ (+ indicates a 1- to 5-fold improvement in activity compared to a reference defensin protein)”.

Turning to “NLCERASKTWTGNCGNTKHCDTQCKSWEGAKHGACHVRSGKHKCFCYFNC (Defensin like) [L5-36]”, the “Activity (1): antifungal activity” value with Fusarium graminearum [2] (setting [3]) is listed as “+ (+ indicates a 1- to 5-fold improvement in activity compared to a reference defensin protein)”.

Turning to “NLCERASKTWTGNCGNTKHCDTQCRNWEGAKHGACHKRSGKWKCFCYFNC (Defensin like) [L6-33]”, the “Activity (1): antifungal activity” value in the experiment on Fusarium graminearum [2] (setting [3]) was “++ (++ indicates a >5- to 10-fold improvement)”.

In the case of “NLCERASKTWTGNCGNTKHCDTQCRNWEGAKHGACHVRNGKWKCFCYFNC (Defensin like) [L5-46]”, in the experiment on Fusarium graminearum [2] (setting [3]), the “Activity (1): antifungal activity” value was “+ (+ indicates a 1- to 5-fold improvement in activity compared to a reference defensin protein)”.

As to “NLCERASKTWTGNCGNTKHCDTQCRNWEGARHGACHVRNGKWKCFCYFNC (Defensin like) [L10-71]”, the “Activity (1): antifungal activity” value with Fusarium graminearum [2] (setting [3]) was “++ (++ indicates a >5- to 10-fold improvement)”.

As to “NLCERASKTWTGNCGNTKHCDTQCRSWEGAKHGACHKRNGKWKCFCYFNC (Defensin like) [L10-14]”, in the experiment on Fusarium graminearum [2] (setting [3]), the “Activity (1): antifungal activity” value is given as “++ (++ indicates a >5- to 10-fold improvement)”.

Take “NLCERASKTWTGNCGNTKHCDTQCRSWEGAKHGACHVRNGKHKCFCYFNC (Defensin like) [L6-42]”: the “Activity (1): antifungal activity” value with Fusarium graminearum [2] (setting [3]) is recorded as “+ (+ indicates a 1- to 5-fold improvement in activity compared to a reference defensin protein)”.

Regarding “NLCERASKTWTGNCGNTKHCDTQCRSWEGAKHGACHVRNGKWKCFCYFNC (Defensin like) [L6-62]”, in the experiment with Fusarium graminearum [2] (setting [3]), the “Activity (1): antifungal activity” value is given as “+ (+ indicates a 1- to 5-fold improvement in activity compared to a reference defensin protein)”.

Regarding “NLCERASKTWTGNCGNTKHCDTQCRSWEGAKHGACHVRSGKHKCFCYFNC (Defensin like) [L5-32]”, the “Activity (1): antifungal activity” value with Fusarium graminearum [2] (setting [3]) is given as “+ (+ indicates a 1- to 5-fold improvement in activity compared to a reference defensin protein)”.

As to “NLCERASLTWTGNCGNTKHCDTQCKNWEGAKHGACHVRNGKWKCFCYFNC (Defensin like) [L3-02]”, in the experiment with Fusarium graminearum [2] (setting [3]), the “Activity (1): antifungal activity” value was “++ (++ indicates a >5- to 10-fold improvement)”.

Turning to “NLWEKASLTWTGNCGNTKHCDNQCKNWESAAHGACHKRSGKWMCFCYFNC (Defensin like) [L4-1]”, the “Activity (1): antifungal activity” value with Fusarium graminearum [2] (setting [3]) is given as “+ (+ indicates a 1- to 5-fold improvement in activity compared to a reference defensin protein)”.

With “QKLCERPSGTWSGVCMNSNACKNQCIRLEGARHGSCNYVFPAHKCICYFPC (Defensin like) [L2-53]”, the “Activity (1): antifungal activity” value with Fusarium graminearum [2] turned out to be 0.
